Source: US20200069691A1, “HETEROCYCLIC COMPOUNDS AS HIV PROTEASE INHIBITORS” (Merck Sharp & Dohme Corp., priority 2016, published 2020)

Target: T1, wild-type HIV-1 protease (Human immunodeficiency virus type 1 group M subtype B, UniProt P04585)
T1 construct: Escherichia coli expressed wild-type HIV-1 protease protein
Assay: Assay for Inhibition of Microbial Expressed HIV Protease (peptide substrate cleavage, LC-MS/MS readout)
Assay type: biochemical
Settings: E. coli expressed wild-type HIV-1 protease, mean of at least two independent experiments, read-out: HIV Pr Enzyme HIV1 PR IC50
How it was run: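 Cleavage of Val-Ser-Gln-Asn-(β-naphthyl)Ala-Pro-Ile-Val (400 μM) by recombinant HIV-1 protease ([…]) ran 1 h at 30 °C after a 30 min room-temperature inhibitor preincubation in 50 mM sodium acetate pH 5.5. Product peak areas by LC-MS/MS gave inhibition; values average at least two independent runs.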

| SMILES | IC50 [nM] |
| --- | --- |
| CCc1nnc2n1CCN(C(=O)c1cc(CN3C(=N)N[C@](CCCC(F)(F)F)(c4ccc(F)cc4)C3=O)ccc1C(F)(F)F)C2 [Compound 65, (5R)-3-{3-[(3-ethyl-5,6-dihydro[1,2,4]triazolo[4,3-a]pyrazin-7(8H)-yl)carbonyl]-4-(trifluoromethyl)benzyl}-5-(4-fluorophenyl)-2-imino-5-(4,4,4-trifluorobutyl)imidazolidin-4-one] | 7.39 |
| CN(C)S(=O)(=O)c1cccc(-c2ncc3c(n2)CN(C(=O)c2cc(CN4C(=N)N[C@](CCCC(F)(F)F)(c5ccc(F)cc5)C4=O)ccc2C(F)(F)F)C3)c1 [Compound 66, 3-(6-{[5-{[(4R)-4-(4-fluorophenyl)-2-imino-5-oxo-4-(4,4,4-trifluorobutyl)imidazolidin-1-yl]methyl}-2-(trifluoromethyl)-phenyl]carbonyl}-6,7-dihydro-5H-pyrrolo[3,4-d]pyrimidin-2-yl)-N,N-dimethylbenzene-sulfonamide] | 7.73 |
| N=C1N[C@](CCCC(F)(F)F)(c2ccc(F)cc2)C(=O)N1Cc1ccc(C(F)(F)F)c(C(=O)N2Cc3cnc(-c4cccc(C(=O)N5CCSCC5)c4)nc3C2)c1 [Compound 67, (5R)-5-(4-fluorophenyl)-2-imino-3-[3-({2-[3-(thiomorpholin-4-ylcarbonyl)phenyl]-5,7-dihydro-6H-pyrrolo[3,4-d]pyrimidin-6-yl}carbonyl)-4-(trifluoromethyl)-benzyl]-5-(4,4,4-trifluorobutyl)-imidazolidin-4-one] | 7.87 |
| CNc1ncc2c(n1)CN(C(=O)c1cc(CN3C(=N)N[C@](CCCC(F)(F)F)(c4ccc(F)cc4)C3=O)ccc1C(F)(F)F)C2 [Compound 68, (5R)-5-(4-fluorophenyl)-2-imino-3-[3-{[2-(methylamino)-5,7-dihydro-6H-pyrrolo[3,4-d]pyrimidin-6-yl]carbonyl}-4-(trifluoromethyl)-benzyl]-5-(4,4,4-trifluorobutyl)-imidazolidin-4-one] | 8.3 |
| N=C1N[C@](CCCC(F)(F)F)(c2ccc(F)cc2)C(=O)N1Cc1ccc(C(F)(F)F)c(C(=O)N2Cc3cnc(-c4cnc(-n5cccn5)nc4)nc3C2)c1 [Compound 69, (5R)-5-(4-fluorophenyl)-2-imino-3-[3-({2-[2-(1H-pyrazol-1-yl)pyrimidin-5-yl]-5,7-dihydro-6H-pyrrolo[3,4-d]pyrimidin-6-yl}carbonyl)-4-(trifluoromethyl)benzyl]-5-(4,4,4-trifluorobutyl)imidazolidin-4-one] | 8.8 |
| N=C1N[C@](C[C@@H]2CCOC2)(c2ccccc2)C(=O)N1Cc1ccc(C(F)(F)F)c(C(=O)N2Cc3nccnc3C2)c1 [Compound 70, (5R)-3-[3-(5,7-dihydro-6H-pyrrolo[3,4-b]pyrazin-6-ylcarbonyl)-4-(trifluoromethyl)-benzyl]-2-imino-5-phenyl-5-[(3R)-tetrahydrofuran-3-ylmethyl]imidazolidin-4-one] | 8.89 |
| N=C1N[C@](CCCC(F)(F)F)(c2ccc(F)cc2)C(=O)N1Cc1ccc(C(F)(F)F)c(C(=O)N2Cc3cnc(NC4CCCC4)nc3C2)c1 [Compound 71, (5R)-3-[3-{[2-(cyclopentylamino)-5,7-dihydro-6H-pyrrolo[3,4-d]pyrimidin-6-yl]carbonyl}-4-(trifluoromethyl)benzyl]-5-(4-fluorophenyl)-2-imino-5-(4,4,4-trifluorobutyl)imidazolidin-4-one] | 9.19 |
| N=C1N[C@](CCCC(F)(F)F)(c2ccc(F)cc2)C(=O)N1Cc1ccc(C(F)(F)F)c(C(=O)N2Cc3cnc(-c4cnn(-c5ccccc5)c4)nc3C2)c1 [Compound 72, (5R)-5-(4-fluorophenyl)-2-imino-3-[3-{[2-(1-phenyl-1H-pyrazol-4-yl)-5,7-dihydro-6H-pyrrolo[3,4-d]pyrimidin-6-yl]carbonyl}-4-(trifluoromethyl)benzyl]-5-(4,4,4-trifluorobutyl)imidazolidin-4-one] | 9.2 |
| N=C1N[C@](CCCC(F)(F)F)(c2ccc(F)cc2)C(=O)N1Cc1ccc(C(F)(F)F)c(C(=O)N2Cc3cnc(C(F)(F)F)nc3C2)c1 [Compound 73, (5R)-5-(4-fluorophenyl)-2-imino-5-(4,4,4-trifluorobutyl)-3-[4-(trifluoromethyl)-3-{[2-(trifluoro-methyl)-5,7-dihydro-6H-pyrrolo-[3,4-d]pyrimidin-6-yl]carbonyl}-benzyl]imidazolidin-4-one] | 9.29 |
| N=C1N[C@](CCCC(F)(F)F)(c2ccc(F)cc2)C(=O)N1Cc1ccc(C(F)(F)F)c(C(=O)N2Cc3cnc(NCC4CC4)nc3C2)c1 [Compound 74, (5R)-3-[3-({2-[(cyclopropylmethyl)amino]-5,7-dihydro-6H-pyrrolo[3,4-d]pyrimidin-6-yl}carbonyl)-4-(trifluoromethyl)benzyl]-5-(4-fluorophenyl)-2-imino-5-(4,4,4-trifluorobutyl)imidazolidin-4-one] | 9.6 |
| N=C1NC(CCC2CC2)(c2cccc(C(F)(F)F)c2)C(=O)N1Cc1ccc(C(F)(F)F)c(C(=O)N2Cc3nccnc3C2)c1 (stereo not drawn) [Compound 75, 5-(2-cyclopropylethyl)-3-[3-(5,7-dihydro-6H-pyrrolo[3,4-b]pyrazin-6-ylcarbonyl)-4-(trifluoromethyl)-benzyl]-2-imino-5-[3-(trifluoro-methyl)phenyl]-imidazolidin-4-one] | 10.2 |
| N=C1NC(CCC2CC2)(c2ccc(-c3cccnc3)cc2)C(=O)N1Cc1ccc(C(F)(F)F)c(C(=O)N2Cc3nccnc3C2)c1 (stereo not drawn) [Compound 76, 5-(2-cyclopropylethyl)-3-[3-(5,7-dihydro-6H-pyrrolo[3,4-b]pyrazin-6-ylcarbonyl)-4-(trifluoromethyl-)benzyl]-2-imino-5-(4-pyridin-3-ylphenyl) imidazolidin-4-one] | 10.4 |
| CC(C)CC(c1ccc(C(F)(F)F)c(C(=O)N2Cc3nccnc3C2)c1)N1C(=N)N[C@](CC2CC2)(c2ccccc2)CC1=O (stereo partly drawn) [Compound 77, (6S)-6-(cyclopropylmethyl)-3-{1-[3-(5,7-dihydro-6H-pyrrolo[3,4-b]pyrazin-6-ylcarbonyl)-4-(trifluoromethyl)phenyl]-3-methyl-butyl}-2-imino-6-phenyltetra-hydropyrimidin-4(1H)-one] | 10.5 |
| N=C1NC(CCC2CC2)(c2cccc(F)c2)C(=O)N1Cc1ccc(C(F)(F)F)c(C(=O)N2CCn3c(nnc3C(F)(F)F)C2)c1 (stereo not drawn) [Compound 78, 5-(2-cyclopropylethyl)-5-(3-fluorophenyl)-2-imino-3-[4-(trifluoromethyl)-3-{[3-(trifluoro-methyl)-5,6-dihydro-[1,2,4]triazolo-[4,3-a]pyrazin-7(8H)-yl]carbonyl}-benzyl]imidazolidin-4-one] | 10.5 |
| N#Cc1cccc(-c2ncc3c(n2)CN(C(=O)c2cc(CN4C(=N)N[C@](CCCC(F)(F)F)(c5ccc(F)cc5)C4=O)ccc2C(F)(F)F)C3)c1 [Compound 79, 3-(6-{[5-{[(4R)-4-(4-fluorophenyl)-2-imino-5-oxo-4-(4,4,4-trifluoro-butyl)imidazolidin-1-yl]methyl}-2-(trifluoromethyl)-phenyl]carbonyl}-6,7-dihydro-5H-pyrrolo[3,4-d]pyrimidin-2-yl)benzonitrile] | 10.8 |
| CN(C)c1ncc2c(n1)CN(C(=O)c1cc(CN3C(=N)N[C@](CCCC(F)(F)F)(c4ccc(F)cc4)C3=O)ccc1C(F)(F)F)C2 [Compound 80, (5R)-3-[3-{[2-(dimethylamino)-5,7-dihydro-6H-pyrrolo[3,4-d]pyrimidin-6-yl]carbonyl}-4-(trifluoromethyl)benzyl]-5-(4-fluorophenyl)-2-imino-5-(4,4,4-trifluorobutyl)imidazolidin-4-one] | 11.5 |
| COC(=O)Nc1ncc2c(n1)CN(C(=O)c1ccc3c(c1)[C@H](N1C(=N)N[C@](CCC(C)C)(c4ccccc4)C1=O)CCC3)C2 [Compound 81, methyl [6-({(8R)-8-[(4R)-2-imino-4-(3-methylbutyl)-5-oxo-4-phenylimidazolidin-1-yl]-5,6,7,8-tetrahydronaphthalen-2-yl}carbonyl)-6,7-dihydro-5H-pyrrolo[3,4-d]pyrimidin-2-yl]carbamate] | 12 |
| N=C1NC(CCC2CC2)(c2cc(F)cc(F)c2)C(=O)N1Cc1ccc(C(F)(F)F)c(C(=O)N2CCn3c(nnc3C(F)(F)F)C2)c1 (stereo not drawn) [Compound 82, 5-(2-cyclopropylethyl)-5-(3,5-difluorophenyl)-2-imino-3-[4-(trifluoromethyl)-3-{[3-(trifluoro-methyl)-5,6-dihydro-[1,2,4]triazolo-[4,3-a]pyrazin-7(8H)-yl]carbonyl}-benzyl]imidazolidin-4-one] | 13.1 |
| N=C1N[C@](CCCC(F)(F)F)(c2ccc(F)cc2)C(=O)N1Cc1ccc(C(F)(F)F)c(C(=O)N2Cc3cnc(N4CCOCC4)nc3C2)c1 [Compound 83, (5R)-5-(4-fluorophenyl)-2-imino-3-{3-[(2-morpholin-4-yl-5,7-dihydro-6H-pyrrolo[3,4-d]pyrimidin-6-yl)carbonyl]-4-(trifluoromethyl)-benzyl}-5-(4,4,4-trifluorobutyl)imidazolidin-4-one] | 13.9 |
| Cc1nonc1N1CCN(C(=O)c2cc(CN3C(=N)N[C@](CCCC(F)(F)F)(c4ccc(F)cc4)C3=O)ccc2C(F)(F)F)CC1 [Compound 84, (5R)-5-(4-fluorophenyl)-2-imino-3-[3-{[4-(4-methyl-1,2,5-oxadiazol-3-yl)piperazin-1-yl]carbonyl}-4-(trifluoromethyl)benzyl]-5-(4,4,4-trifluorobutyl)imidazolidin-4-one] | 14.1 |
| N=C1N[C@](CCCC(F)(F)F)(c2ccc(F)cc2)C(=O)N1Cc1ccc(C(F)(F)F)c(C(=O)N2Cc3cnc(NC4CCC4)nc3C2)c1 [Compound 85, (5R)-3-[3-{[2-(cyclobutylamino)-5,7-dihydro-6H-pyrrolo[3,4-d]pyrimidin-6-yl]carbonyl}-4-(trifluoromethyl)benzyl]-5-(4-fluorophenyl)-2-imino-5-(4,4,4-trifluorobutyl)imidazolidin-4-one] | 14.4 |
